What all share (assay): relative viability (nuclei count vs DMSO), 5 days (fraction); higher = more cells survive
Compound in assay [1]: COC1=CC=C(C=C1)CN2C=CC3=C2C=C(C=C3)C(=O)NO + CC(C)C[C@H](NC(=O)[C@H](Cc1ccccc1)NC(=O)c1cnccn1)B(O)O [Bortezomib] (partner 0.002 µM)
The gist of the method:
(§1)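 Lung cancer cell lines in 1536-well plates were dosed by pin tool the day after seeding, either with one drug alone or with a fixed anchor-drug dose plus five library-drug doses (not always all listed) in √10 steps. After 5 days, cells were fixed and their nuclei stained in one step (final 0.05% Triton X-100, 1% formaldehyde, 1 ug/ml Hoechst), then counted on 4× images. Relative viability is the nuclei count in treated wells divided by that in vehicle wells. Values are medians of duplicate plates.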

Compound in assay [2]: COC1=CC=C(C=C1)CN2C=CC3=C2C=C(C=C3)C(=O)NO + CS(=O)(=O)N1CCN(Cc2cc3nc(-c4cccc5[nH]ncc45)nc(N4CCOCC4)c3s2)CC1 [Pictilisib] (partner 1 µM)
Summed up:
as §1

Compound in assay [3]: COC1=CC=C(C=C1)CN2C=CC3=C2C=C(C=C3)C(=O)NO + O=C(c1cc(Cc2n[nH]c(=O)c3ccccc23)ccc1F)N1CCN(C(=O)C2CC2)CC1 [Olaparib] (partner 8 µM)
The gist of the method:
as §1

Compound in the assay “Veliparib + Dasatinib”: C[C@]1(c2nc3c(C(N)=O)cccc3[nH]2)CCCN1 [Veliparib] + Cc1nc(Nc2ncc(C(=O)Nc3c(C)cccc3Cl)s2)cc(N2CCN(CCO)CC2)n1 [Dasatinib] (partner 0.075 µM)
The gist of the method: as §1

Among the data in the supplement of paper PMC10307832 are relative viability values, retold here.

As to NCI-H3122, the relative viability was found to be 1.06 in assay [1] (first compound 0.08 µM); 1.03 in assay [1] (first compound 0.253 µM); 1.04 in assay [1] (first compound 0.8 µM); 1.09 in assay [1] (first compound 2.53 µM); 0.983 in assay [1] (first compound 8 µM); 0.571 in assay [2] (first compound 0.08 µM). Further, the relative viability in assay [2] (first compound 0.253 µM) amounted to 0.629; in assay [2] (first compound 0.8 µM), 0.652; in assay [2] (first compound 2.53 µM), 0.577; in assay [2] (first compound 8 µM), 0.518; in assay [3] (first compound 0.08 µM), 0.624; in assay [3] (first compound 0.253 µM) it was 0.642. Moreover, the relative viability in assay [3] (first compound 0.8 µM) turned out to be 0.616; in assay [3] (first compound 2.53 µM), 0.6; in assay [3] (first compound 8 µM) it was 0.583; in the assay with Veliparib + Dasatinib (first compound 0.02 µM), 0.674; in the assay with Veliparib + Dasatinib (first compound 0.06325 µM), 0.792; with Veliparib + Dasatinib (first compound 0.2 µM) it was 0.84. The figures for the relative viability in the assay with Veliparib + Dasatinib (first compound 0.6325 µM) and with Veliparib + Dasatinib (first compound 2 µM) were 0.766 and 0.572, respectively.

With PC-3 [JPC-3], the relative viability in assay [1] (first compound 0.08 µM) turned out to be 0.808; in assay [1] (first compound 0.253 µM), 0.814; in assay [1] (first compound 0.8 µM) it was 0.833; in assay [1] (first compound 2.53 µM), 0.817; in assay [1] (first compound 8 µM), 0.854; in assay [2] (first compound 0.08 µM) it was 0.781. The relative viability in assay [2] (first compound 0.253 µM) is 0.713; in assay [2] (first compound 0.8 µM) it was 0.747; in assay [2] (first compound 2.53 µM) it was 0.805; in assay [2] (first compound 8 µM), 0.718; in assay [3] (first compound 0.08 µM) it was 1.1; in assay [3] (first compound 0.8 µM), 1.11. Moreover, the relative viability stood at 1.19 in assay [3] (first compound 2.53 µM); 1.14 in assay [3] (first compound 8 µM); 1.04 with Veliparib + Dasatinib (first compound 0.02 µM); 0.93 with Veliparib + Dasatinib (first compound 0.06325 µM); 0.967 with Veliparib + Dasatinib (first compound 0.2 µM); 0.985 in the assay with Veliparib + Dasatinib (first compound 0.6325 µM). Moreover, the relative viability with Veliparib + Dasatinib (first compound 2 µM) was found to be 0.975.

With PC-14, the relative viability in assay [1] (first compound 0.08 µM) came out at 0.706; in assay [1] (first compound 0.253 µM) it was 0.726; in assay [1] (first compound 0.8 µM) it was 0.954; in assay [1] (first compound 2.53 µM), 0.956; in assay [1] (first compound 8 µM) it was 0.937; in assay [2] (first compound 0.08 µM), 0.388. Moreover, the relative viability was found to be 0.629 in assay [2] (first compound 0.253 µM); 0.766 in assay [2] (first compound 0.8 µM); 0.688 in assay [2] (first compound 2.53 µM); 0.699 in assay [2] (first compound 8 µM); 0.242 in assay [3] (first compound 0.08 µM); 0.224 in assay [3] (first compound 0.253 µM). Further, the relative viability was 0.306 in assay [3] (first compound 0.8 µM); 0.236 in assay [3] (first compound 2.53 µM); 0.215 in assay [3] (first compound 8 µM); 0.214 with Veliparib + Dasatinib (first compound 0.02 µM); 0.26 in the assay with Veliparib + Dasatinib (first compound 0.06325 µM); 0.319 with Veliparib + Dasatinib (first compound 0.2 µM). The results for the relative viability in the assay with Veliparib + Dasatinib (first compound 0.6325 µM) and with Veliparib + Dasatinib (first compound 2 µM) were 0.281 and 0.317, respectively.

Consider RERF-LC-KJ, for which the relative viability worked out at 1.08 in assay [1] (first compound 0.08 µM); 1.13 in assay [1] (first compound 0.253 µM); 1.11 in assay [1] (first compound 0.8 µM); 1.13 in assay [1] (first compound 2.53 µM); 1.06 in assay [1] (first compound 8 µM); 0.468 in assay [2] (first compound 0.08 µM). The relative viability was found to be 0.571 in assay [2] (first compound 0.253 µM); 0.511 in assay [2] (first compound 0.8 µM); 0.608 in assay [2] (first compound 2.53 µM); 0.472 in assay [2] (first compound 8 µM); 0.829 in assay [3] (first compound 0.08 µM); 0.825 in assay [3] (first compound 0.253 µM). For the same cell line, the relative viability was found to be 0.986 in assay [3] (first compound 0.8 µM); 0.816 in assay [3] (first compound 2.53 µM); 0.806 in assay [3] (first compound 8 µM); 0.574 with Veliparib + Dasatinib (first compound 0.02 µM); 0.865 with Veliparib + Dasatinib (first compound 0.06325 µM); 0.845 with Veliparib + Dasatinib (first compound 0.2 µM). Also, the figures for the relative viability in the assay with Veliparib + Dasatinib (first compound 0.6325 µM) and with Veliparib + Dasatinib (first compound 2 µM) were 0.767 and 0.755, respectively.

For SK-LU-1, the relative viability was 1.08 in assay [1] (first compound 0.253 µM); 1.58 in assay [1] (first compound 0.8 µM); 1.14 in assay [1] (first compound 2.53 µM); 0.817 in assay [1] (first compound 8 µM); 0.468 in assay [2] (first compound 0.08 µM); 0.586 in assay [2] (first compound 0.253 µM). The relative viability was 0.613 in assay [2] (first compound 0.8 µM); 0.517 in assay [2] (first compound 2.53 µM); 0.505 in assay [2] (first compound 8 µM); 0.436 in assay [3] (first compound 0.08 µM); 0.443 in assay [3] (first compound 0.253 µM); 0.627 in assay [3] (first compound 0.8 µM). In addition, the relative viability in assay [3] (first compound 2.53 µM) is 0.449; in assay [3] (first compound 8 µM), 0.422; in the assay with Veliparib + Dasatinib (first compound 0.02 µM), 0.185; with Veliparib + Dasatinib (first compound 0.06325 µM), 0.173; with Veliparib + Dasatinib (first compound 0.2 µM), 0.175; with Veliparib + Dasatinib (first compound 0.6325 µM) it was 0.17. Further, the relative viability with Veliparib + Dasatinib (first compound 2 µM) was 0.187.

Consider SW 1573, for which the relative viability in assay [1] (first compound 0.253 µM) is 1.18; in assay [1] (first compound 0.8 µM) it was 1.15; in assay [1] (first compound 2.53 µM), 1.13; in assay [1] (first compound 8 µM), 0.906; in assay [2] (first compound 0.253 µM) it was 0.478; in assay [2] (first compound 0.8 µM) it was 0.554. Further, the relative viability turned out to be 0.532 in assay [2] (first compound 2.53 µM); 0.486 in assay [2] (first compound 8 µM); 0.543 in assay [3] (first compound 0.253 µM); 0.465 in assay [3] (first compound 0.8 µM); 0.432 in assay [3] (first compound 2.53 µM); 0.334 in assay [3] (first compound 8 µM). Also, the relative viability was found to be 0.659 with Veliparib + Dasatinib (first compound 0.06325 µM), 0.38 in the assay with Veliparib + Dasatinib (first compound 0.2 µM), 0.391 in the assay with Veliparib + Dasatinib (first compound 0.6325 µM) and 0.439 with Veliparib + Dasatinib (first compound 2 µM).

With UMC-11, the relative viability in assay [1] (first compound 0.08 µM) is 0.665; in assay [1] (first compound 0.253 µM), 0.668; in assay [1] (first compound 0.8 µM), 0.809; in assay [1] (first compound 2.53 µM) it was 0.67; in assay [1] (first compound 8 µM) it was 0.634; in assay [2] (first compound 0.08 µM), 0.28. In addition, the relative viability in assay [2] (first compound 0.253 µM) amounted to 0.82; in assay [2] (first compound 0.8 µM), 0.864; in assay [2] (first compound 2.53 µM), 0.756; in assay [2] (first compound 8 µM), 0.748; in assay [3] (first compound 0.08 µM) it was 0.373; in assay [3] (first compound 0.253 µM), 0.355. The relative viability in assay [3] (first compound 0.8 µM) was 0.415; in assay [3] (first compound 2.53 µM) it was 0.911; in assay [3] (first compound 8 µM) it was 0.373; with Veliparib + Dasatinib (first compound 0.02 µM), 0.505; with Veliparib + Dasatinib (first compound 0.06325 µM), 0.451; with Veliparib + Dasatinib (first compound 0.2 µM), 0.483. The relative viability in the assay with Veliparib + Dasatinib (first compound 0.6325 µM) came to 0.452; with Veliparib + Dasatinib (first compound 2 µM), 0.542.
